Data published in paper PMC3757929 (Molecular pharmaceutics, 2013).
Where two headings read alike, the source gives them in different places.

Key:
[1] = target: T1, prostate specific membrane antigen (PSMA) (Homo sapiens, UniProt Q04609); assay: competitive binding on LNCaP cells with […]-GPI radioligand; type: cell-based
[2] = target: T1, prostate specific membrane antigen (PSMA); assay: as above; type: cell-based; remark: listed apart in the source

T1 sequence (Q04609 whole entry): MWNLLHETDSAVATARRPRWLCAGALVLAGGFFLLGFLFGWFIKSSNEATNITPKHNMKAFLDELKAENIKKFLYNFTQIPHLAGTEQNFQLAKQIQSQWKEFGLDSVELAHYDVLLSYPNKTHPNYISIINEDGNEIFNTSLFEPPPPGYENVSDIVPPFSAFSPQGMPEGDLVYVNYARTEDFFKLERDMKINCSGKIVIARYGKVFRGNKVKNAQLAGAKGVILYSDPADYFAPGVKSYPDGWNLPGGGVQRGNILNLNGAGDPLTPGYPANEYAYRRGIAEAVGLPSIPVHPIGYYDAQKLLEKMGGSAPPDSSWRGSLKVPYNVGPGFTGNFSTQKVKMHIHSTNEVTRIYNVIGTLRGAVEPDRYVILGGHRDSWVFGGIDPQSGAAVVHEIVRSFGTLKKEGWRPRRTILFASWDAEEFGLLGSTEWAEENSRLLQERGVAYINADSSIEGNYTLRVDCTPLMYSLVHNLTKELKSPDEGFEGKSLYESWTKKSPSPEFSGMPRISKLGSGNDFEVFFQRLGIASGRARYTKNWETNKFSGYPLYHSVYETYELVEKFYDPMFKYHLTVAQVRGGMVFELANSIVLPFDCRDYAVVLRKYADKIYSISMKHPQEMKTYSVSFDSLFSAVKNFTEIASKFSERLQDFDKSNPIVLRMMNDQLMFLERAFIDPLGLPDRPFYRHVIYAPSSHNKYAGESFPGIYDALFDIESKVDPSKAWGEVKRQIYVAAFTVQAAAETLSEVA

Row | Structure (SMILES) | IC50 [1] [nM] | IC50 [2] [nM]
1 | O=C(O)CCC(CP(=O)(O)CCC(NC(=O)CCC(C(=O)O)N1CCCN2CCN(CCCN(C(CCC(=O)NC(CCP(=O)(O)CC(CCC(=O)O)C(=O)O)C(=O)O)C(=O)O)CC2)CC1)C(=O)O)C(=O)O (racemic) [H2CBT2G] | 129 ± 17 | –
2 | NC(CCP(=O)(O)CC(CCC(=O)O)C(=O)O)C(=O)O (racemic) [GPI, 2[(3-amino-3-carboxypropyl)(hydroxy)(phosphinyl)-methyl]pentane-1,5-dioic acid] | – | 460 ± 13
3 | O=C(O)CCC(CP(=O)(O)CCC(NC(=O)CCC(C(=O)O)N1CCCN2CCN(CCCN(CC(=O)O)CC2)CC1)C(=O)O)C(=O)O (racemic) [H2CBT1G] | 578 ± 81 | –
